From paper PMC6274262, “Synthesis of Novel Symmetrical 1,4-Disubstituted 1,2,3-Bistriazole Derivatives via ‘Click Chemistry’ and Their Biological Evaluation” (Molecules, 2016)

What was measured:
S. cerevisiae RSKK 251 = assay: Agar-well diffusion antimicrobial screening; assay type: cell-based, Saccharomyces cerevisiae
[1] = DPPH radical scavenging assay; conditions: 0.1 mM methanolic DPPH, 30 min in the dark, 517 nm; mean ± S.D., triplicate
Procedure: Some 1,2,3-triazole compounds are known to act either as inhibitors of free radical production or as radical scavengers. Therefore, the potential antioxidant property of the new 1,2,3-trizole compounds was evaluated by determining their DPPH and SOD radical scavenging ability. DPPH is a stable free radical that accepts an electron or hydrogen radical to become a stable species. Due to its odd electron, DPPH gives a strong absorption band at 517 nm. Antioxidants are suitable reducing agents and neutralize the free radicals by pairing the DPPH odd electron with a hydrogen atom, and the DPPH solution turns yellow, observed as the decrease in absorbance at 517 nm.
The compounds were tested for in vitro antioxidant activities by the 2,2-diphenyl-1-picrylhydrazyl (DPPH) free radical scavenging assay method. The total volume of the assay mixtures containing methanolic DPPH solution (0.1 mM) and different concentrations of samples was 1 mL. After incubation in the dark at room temperature for 30 min., absorbance of the samples (Asample) was measured at 517 nm. Assay mixture without compound was used as control (control absorbance, Acontrol). All experiments were carried out in triplicate and results were expressed as the mean ±standard deviation (S.D.). Butylatedhydroxyanisole (BHA) were used as the reference compound. Free radical scavenging effect was calculated using Equation (1).

[2] = target: T1, Electric eel acetyl-cholinesterase enzyme (AchE, Type-VI-S; EC 3.1.1.7) (Electrophorus electricus, UniProt O42275); assay: biochemical; conditions: mean ± S.D. of three independent experiments; Tris-HCl pH 8.00, 412 nm
T1 construct: purchased Sigma-Aldrich Type-VI-S
Procedure: Firstly, all of the compounds stock solution in DMF (1 × 10^−3 M) were prepared and then five different concentrations were prepared from stock solution in buffer (Tris-HCI pH 8.00) for experiments. Briefly 50 µL of 50 mM Tris-HCl buffer (pH 8.00), 125 µL of 3 mM DTNB (in buffer), 25 µL of 0.2 U/mL AChE and 25 µL of sample dissolved in buffer and incubated for 15 min. at 25 °C. Fifteen minutes later, 25 µL of 15 mM acetyl thiocholine iodide were added and incubated 5 min. at room temperature. The reaction was initiated by the addition of acetylcholine iodide. The hydrolysis of this substrate was monitored by the formation of the yellow 5-thio-2-nitrobenzoate anion as a result of the reaction DTNB with thiocholine, catalized by enzyme at a wave length of 412 nm using a 96-well microplate reader (Multiskan Go UV-spectrophotometer, Thermo Fisher Scientific Oy Ratastie 2, Vantaa, Finland).
Inhibition of AChE was calculated by the comparison of reaction rates of the samples relative to the blank sample (DMF in phosphate buffer pH = 8) using the Equation (1) where Acontrol is the activity of enzyme without test sample and Asample is the activity of enzyme with test sample: (1) Scavenging effects (%)=[(Acontrol−Asample)/Acontrol]×100
The experiments were carried out in triplicate and IC50 values were examined.

[3] = Superoxide radical scavenging assay (NBT photo reduction method); conditions: pH 7.8, 30 °C, 10 min, 560 nm, mean ± S.D., triplicate
Procedure: Superoxide scavenging activity of the compounds and reference were tested in a non-enzymatic superoxide radical (O2^−•) generation assay using a modified spectrophotometrical nitro blue tetrazolium (NBT) photo reduction method. The total volume of the assay mixtures containing riboflavin (2 μM), methionine (13 mM), NBT ([…]), EDTA (0.1 mM), and the test samples (50 mM phosphate buffer, pH = 7.8) was 1 mL. After illuminating with a fluorescent lamp at 30 °C for 10 min., the absorbance of the samples (Asample) was measured at 560 nm. Assay mixture without the compound was used as control (control absorbance, Acontrol). All experiments were carried out in triplicate and results were expressed as the mean ± standard deviation (S.D.). Free O2^−• radical scavenging effect was calculated using Equation (1).

C. albicans ATCC 60193 = assay: Agar-well diffusion antimicrobial screening; assay type: cell-based, Candida albicans

T1 sequence (O42275 24-633): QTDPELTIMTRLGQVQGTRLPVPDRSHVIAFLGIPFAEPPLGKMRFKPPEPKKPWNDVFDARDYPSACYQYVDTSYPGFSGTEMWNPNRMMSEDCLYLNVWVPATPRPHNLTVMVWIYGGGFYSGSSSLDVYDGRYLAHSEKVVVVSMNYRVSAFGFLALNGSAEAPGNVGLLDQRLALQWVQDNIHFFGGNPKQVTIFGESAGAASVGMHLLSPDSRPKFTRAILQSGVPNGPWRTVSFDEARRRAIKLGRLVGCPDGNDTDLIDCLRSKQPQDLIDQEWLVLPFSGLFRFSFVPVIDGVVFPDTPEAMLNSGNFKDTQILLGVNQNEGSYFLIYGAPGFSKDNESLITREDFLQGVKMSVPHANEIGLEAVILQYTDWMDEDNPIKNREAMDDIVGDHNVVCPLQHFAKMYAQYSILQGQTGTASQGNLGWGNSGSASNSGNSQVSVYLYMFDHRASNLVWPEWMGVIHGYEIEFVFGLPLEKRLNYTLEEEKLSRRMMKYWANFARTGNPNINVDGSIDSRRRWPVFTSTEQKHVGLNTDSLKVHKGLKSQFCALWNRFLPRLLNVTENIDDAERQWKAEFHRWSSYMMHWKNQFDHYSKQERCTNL

| Compound | Inhibition Zone Sc (S. cerevisiae RSKK 251) | DPPH IC50 [1] | IC50 [2] [µM] | SOD IC50 [3] | Inhibition Zone Ca (C. albicans ATCC 60193) [mm] |
| --- | --- | --- | --- | --- | --- |
| 4-((1-(10-(4-((4-Formyl-2-methoxyphenoxy)methyl)-1H-1,2,3-triazol-1-yl)decyl)-1H-1,2,3-triazol-4-yl)-methoxy)-2-methoxybenzaldehyde [Compound 5f] | - |  |  |  |  |
| COc1ccc(O)c(C(C)(C)C)c1 [BHA, Butylatedhydroxyanisole, reference compound] |  | 98.56 (±0.08) µg/mL |  |  |  |
| CC(=O)c1ccc(OCc2cn(CCCn3cc(COc4ccc(C(C)=O)cc4)nn3)nn2)cc1 [Compound 2a, 1,1′-((((Propane-1,3-diylbis(1H-1,2,3-triazole-1,4-diyl))bis(methylene))bis(oxy))bis(4,1-phenylene))bis(ethan-1-one)] |  | 155.49 (±0.08) µg/mL | 64.7 | 45.12 (±0.04) µg/mL |  |
| CC(=O)c1ccc(OCc2cn(CCCCn3cc(COc4ccc(C(C)=O)cc4)nn3)nn2)cc1 [Compound 2b, 1,1′-((((Butane-1,4-diylbis(1H-1,2,3-triazole-1,4-diyl))bis(methylene))bis(oxy))bis(4,1-phenylene))bis(ethan-1-one)] |  | 158.72 (±0.05) µg/mL | 52.3 | 107.54 (±0.07) µg/mL |  |
| CC(=O)c1ccc(OCc2cn(CCCCCn3cc(COc4ccc(C(C)=O)cc4)nn3)nn2)cc1 [Compound 2c, 1,1′-((((Pentane-1,5-diylbis(1H-1,2,3-triazole-1,4-diyl))bis(methylene))bis(oxy))bis(4,1-phenylene))bis(ethan-1-one)] |  | 175.65 (±0.06) µg/mL | 67 | 147.36 (±0.05) µg/mL | 6 |
| CC(=O)c1ccc(OCc2cn(CCCCCCn3cc(COc4ccc(C(C)=O)cc4)nn3)nn2)cc1 [Compound 2d, 1,1′-((((Hexane-1,6-diylbis(1H-1,2,3-triazole-1,4-diyl))bis(methylene))bis(oxy))bis(4,1-phenylene))bis(ethan-1-one)] |  | 152.84 (±0.05) µg/mL | 62.4 | 154.79 (±0.06) µg/mL | 6 |
| CC(=O)c1ccc(OCc2cn(CCCCCCCCn3cc(COc4ccc(C(C)=O)cc4)nn3)nn2)cc1 [Compound 2e, 1,1′-((((Octane-1,8-diylbis(1H-1,2,3-triazole-1,4-diyl))bis(methylene))bis(oxy))bis(4,1-phenylene))bis(ethan-1-one)] |  | 222.16 (±0.07) µg/mL | 66.4 | 131.43 (±0.06) µg/mL |  |
| CC(=O)c1ccc(OCc2cn(CCCCCCCCCCn3cc(COc4ccc(C(C)=O)cc4)nn3)nn2)cc1 [Compound 2f, 1,1′-((((Decane-1,10-diylbis(1H-1,2,3-triazole-1,4-diyl))bis(methylene))bis(oxy))bis(4,1-phenylene))bis-(ethan-1-one)] |  | 167.51 (±0.05) µg/mL | 50.8 | 88.15 (±0.06) µg/mL |  |
| COc1cc(C(C)=O)ccc1OCc1cn(CCCn2cc(COc3ccc(C(C)=O)cc3OC)nn2)nn1 [Compound 3a] |  | 141.57 (±0.08) µg/mL | 63.3 | 120.53 (±0.04) µg/mL | 6 |
| COc1cc(C(C)=O)ccc1OCc1cn(CCCCn2cc(COc3ccc(C(C)=O)cc3OC)nn2)nn1 [Compound 3b, 1-(4-((1-(4-(4-((4-Acetyl-2-methoxyphenoxy)methyl)-1H-1,2,3-triazol-1-yl)butyl)-1H-1,2,3-triazol-4-yl)-methoxy)-2-methoxyphenyl)ethan-1-one] |  | 113.63 (±0.05) µg/mL | 57 | 51.37 (±0.07) µg/mL |  |
| COc1cc(C(C)=O)ccc1OCc1cn(CCCCCn2cc(COc3ccc(C(C)=O)cc3OC)nn2)nn1 [Compound 3c] |  | 188.45 (±0.11) µg/mL | 75.7 | 284.10 (±0.07) µg/mL |  |
| COc1cc(C(C)=O)ccc1OCc1cn(CCCCCCCCCCn2cc(COc3ccc(C(C)=O)cc3OC)nn2)nn1 [Compound 3f] |  | 207.57 (±0.09) µg/mL | 78.6 | 98.35 (±0.06) µg/mL |  |
| O=Cc1ccc(OCc2cn(CCCn3cc(COc4ccc(C=O)cc4)nn3)nn2)cc1 [Compound 4a, 4,4′-(((Propane-1,3-diylbis(1H-1,2,3-triazole-1,4-diyl))bis(methylene))bis(oxy))dibenzaldehyde] |  | 192.02 (±0.12) µg/mL | 62.8 | 55.67 (±0.08) µg/mL |  |
| O=Cc1ccc(OCc2cn(CCCCn3cc(COc4ccc(C=O)cc4)nn3)nn2)cc1 [Compound 4b, 4,4′-(((Butane-1,4-diylbis(1H-1,2,3-triazole-1,4-diyl))bis(methylene))bis(oxy))dibenzaldehyde] |  | 125.05 (±0.08) µg/mL | 74.1 | 121.74 (±0.08) µg/mL | 6 |
| O=Cc1ccc(OCc2cn(CCCCCn3cc(COc4ccc(C=O)cc4)nn3)nn2)cc1 [Compound 4c, 4,4′-(((Pentane-1,5-diylbis(1H-1,2,3-triazole-1,4-diyl))bis(methylene))bis(oxy))dibenzaldehyde] |  | 227.38 (±0.07) µg/mL | 83.4 | 60.32 (±0.07) µg/mL | 6 |
| O=Cc1ccc(OCc2cn(CCCCCCn3cc(COc4ccc(C=O)cc4)nn3)nn2)cc1 [Compound 4d, 4,4′-(((Hexane-1,6-diylbis(1H-1,2,3-triazole-1,4-diyl))bis(methylene))bis(oxy))dibenzaldehyde] |  | 204.31 (±0.11) µg/mL | 58.5 | 82.77 (±0.11) µg/mL |  |
| O=Cc1ccc(OCc2cn(CCCCCCCCn3cc(COc4ccc(C=O)cc4)nn3)nn2)cc1 [Compound 4e, 4,4′-(((Octane-1,8-diylbis(1H-1,2,3-triazole-1,4-diyl))bis(methylene))bis(oxy))dibenzaldehyde] |  | 192.04 (±0.09) µg/mL | 63.4 | 88.86 (±0.09) µg/mL | 6 |
| O=Cc1ccc(OCc2cn(CCCCCCCCCCn3cc(COc4ccc(C=O)cc4)nn3)nn2)cc1 [Compound 4f, 4,4′-(((Decane-1,10-diylbis(1H-1,2,3-triazole-1,4-diyl))bis(methylene))bis(oxy))dibenzaldehyde] |  | 210.33 (±0.08) µg/mL | 62.5 | 93.47 (±0.09) µg/mL |  |
| COc1cc(C=O)ccc1OCc1cn(CCCn2cc(COc3ccc(C=O)cc3OC)nn2)nn1 [Compound 5a] |  | 150.03 (±0.08) µg/mL | 74.7 | 126.2 (±0.07) µg/mL |  |
| COc1cc(C=O)ccc1OCc1cn(CCCCn2cc(COc3ccc(C=O)cc3OC)nn2)nn1 [Compound 5b] |  | 154.51 (±0.07) µg/mL | 61.8 | 109.17 (±0.10) µg/mL |  |
| COc1cc(C=O)ccc1OCc1cn(CCCCCn2cc(COc3ccc(C=O)cc3OC)nn2)nn1 [Compound 5c] |  | 192.46 (±0.11) µg/mL | 69.4 | 145.68 (±0.11) µg/mL |  |
| COc1cc(C=O)ccc1OCc1cn(CCCCCCn2cc(COc3ccc(C=O)cc3OC)nn2)nn1 [Compound 5d] |  | 191.39 (±0.08) µg/mL | 70.3 | 157.14 (±0.07) µg/mL |  |
| COc1cc(C=O)ccc1OCc1cn(CCCCCCCCn2cc(COc3ccc(C=O)cc3OC)nn2)nn1 [Compound 5e] |  | 221.57 (±0.06) µg/mL | 61.8 | 188.84 (±0.08) µg/mL |  |
